Source: patent US20230128609A1, “TUMOR SUPPRESSION BY MODULATION OF NON-CANONICAL AUTOPHAGY (LAP) IN MYELOID CELLS” (St. Jude Children's Research Hospital, priority 2017, published 2023)

Test system: RAW cells expressing Venus-LC3
Assay: Evaluation of LAP, as assessed by LC3-II lipidation upon zymozan stimulation, by flow cytometry
Type: cell-based
Conditions: RAW cells expressing Venus-LC3 stimulated with zymozan-Alexa594 (ZYM) for 1 h, treatment started 30 min prior to stimulation, digitonin-permeabilized cells
Description: (FIG. 9D) Evaluation of LAP, as assessed by LC3-II lipidation upon stimuli. RAW cells expressing Venus-LC3 were stimulated with ZYM for 1 h, treated with digitonin and accumulation of lipidated LC3-II in permeabilized cells was measured by flow cytometry. (FIG. 9E) Quantification of FIG. 9D, in MFI. […] Flow cytometry analysis. At the indicated time points, GFP-LC3+ cells can be collected, washed once with FACS buffer, and permeabilized with digitonin (Sigma, 200 g ml-1) for 15 min on ice. Cells can be washed 3 times with FACS buffer and analysed by flow cytometry for membrane-bound GFP—LC3—II.

SMILES	LAP activity in vitro (LC3-II lipidation upon stimuli)
COc1cc(C(C)=O)ccc1O [apocynin]	abrogates LAP activity
c1ccc2c(c1)[I+]c1ccccc1-2 [DPI, diphenyleneiodonium]	abrogates LAP activity
